Experiment in all cases: growth of human tumour cells (NCI), 48 h
In experiment [1] the test system is 786-0 renal.
Experiment [2] relates to A549 NSCLC.
For experiment [3], the system named is EKVX NSCLC.
The test system of experiment [4] is HL-60(TB) leukemia.
For experiment [5], the system named is HT29 colon.
In experiment [6] the test system is LOX IMVI melanoma.
The subject of experiment [7] is MCF7 breast.
Experiment [8] concerns MDA-MB-435.
Experiment [9] has as its system MDA-N.
Experiment [10] has as its system MOLT-4 leukemia.
Experiment [11] has as its system NCI-H460 lung.
The subject of experiment [12] is OVCAR-3 ovarian.
The test system of experiment [13] is OVCAR-8 ovarian.
Experiment [14] has as its system SK-OV-3 ovarian.
Experiment [15] concerns SNB-75 CNS.
Experiment [16] concerns TK-10 renal.
The test system of experiment [17] is UACC-257 melanoma.
For experiment [18], the system named is UO-31 renal.

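In this assay, cells in 96-well plates receive the compound at five concentrations for 48 hours. Endpoints are linearly interpolated between the surrounding concentrations. The concentration for full growth arrest is given as TGI.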 Some results are limits rather than exact numbers.

As for `O=C1/C(=C/c2ccccc2)CCC/C1=C\c1ccc(O)c(CN2CCCCC2)c1`, the TGI in experiment [1] was 3.4 µM; in experiment [2] it was 36.4 µM; in [3] it was 18.1 µM; in experiment [4], greater than 100 µM; in experiment [5], 4.04 µM; in experiment [6], 4.08 µM. The TGI amounted to 19.2 µM in experiment [7]; 7.5 µM in [8]; 8.11 µM in [9]; 8.21 µM in experiment [10]; 16.5 µM in [11]; 22.9 µM in experiment [12]. Also, the TGI is 9.54 µM in experiment [13]; 22.2 µM in experiment [14]; 17.1 µM in [15]; 31 µM in [16]; 18.5 µM in [17]; 19.7 µM in experiment [18].

Consider `NC(=O)NC(=O)c1cccc(NC(=O)CF)c1`, for which the TGI in [1], in experiment [2], in experiment [3], in [4], in [5] and in experiment [6] was greater than 100 µM throughout. In addition, the TGI in [7], in experiment [8], in experiment [9], in experiment [10], in experiment [11] and in experiment [12] was greater than 100 µM throughout. Moreover, the TGI was greater than 100 µM in experiment [13]; greater than 100 µM in experiment [14]; greater than 100 µM in experiment [15]; greater than 100 µM in experiment [16]; greater than 100 µM in [17]; 80.6 µM in [18].

Turning to `O=C1/C(=C/c2c(Cl)[nH]c3ccccc23)c2ccccc2N1c1ccccc1`, the TGI in [1] was 25.4 µM; in [2], greater than 100 µM; in experiment [3] it was 27.2 µM; in experiment [4], 13.9 µM; in experiment [5], 18.9 µM; in experiment [6] it was 15.6 µM. Further, the TGI was found to be 30.9 µM in experiment [7]; 4.12 µM in experiment [8]; 3.8 µM in experiment [9]; 31.8 µM in experiment [10]; 14.4 µM in experiment [11]; 6.26 µM in [12]. In addition, the TGI in experiment [13] came out at 20.4 µM; in [14] it was 14.2 µM; in experiment [15], 37.8 µM; in experiment [16] it was 39.9 µM; in [17] it was 23.8 µM; in [18], 37.1 µM.

Regarding `O=c1[nH]c(-c2ccccc2)nc2c1sc1nc3ccccc3n12`, the TGI in experiment [1], in experiment [2], in [3], in [4], in experiment [5] and in experiment [6] was greater than 100 µM throughout. Besides, the TGI in [7], in experiment [8], in [9], in experiment [10], in [11] and in experiment [12] was greater than 100 µM each time. In addition, the TGI in [13], in [14], in experiment [15], in experiment [16], in experiment [17] and in experiment [18] was greater than 100 µM throughout.

Take `O=c1oc2c(ccc3ccccc32)cc1C1=CSC2=NCCN12`: the TGI in [1], in [2], in experiment [3], in experiment [4], in experiment [5] and in experiment [6] was greater than 100 µM in each case. In addition, the TGI in experiment [7] is 67.8 µM; in experiment [8], greater than 100 µM; in experiment [9], greater than 100 µM; in experiment [10], greater than 100 µM; in experiment [11], greater than 100 µM; in experiment [12], greater than 100 µM. Also, the TGI in experiment [13], in experiment [14], in experiment [15], in [16], in experiment [17] and in experiment [18] was greater than 100 µM throughout.

Regarding `CCCCOCCOC1=CC(=O)c2c(O)ccc(O)c2C1=O`, the TGI amounted to 3.03 µM in [1]; 3.41 µM in experiment [2]; 3.08 µM in experiment [3]; 2.99 µM in [4]; 3.12 µM in experiment [5]; 3.15 µM in experiment [6]. Also, the TGI in [7] was 3.15 µM; in experiment [8], 0.334 µM; in [9] it was 0.341 µM; in [10], 9.38 µM; in experiment [11], 3.43 µM; in experiment [12] it was 3.04 µM. In addition, the TGI in experiment [14] was greater than 10 µM; in experiment [15] it was 2.91 µM; in experiment [16] it was 4.8 µM; in experiment [17], 2.23 µM; in experiment [18] it was 3.01 µM.

Turning to `O=C1C(=C(I)I)c2ccccc2-c2ccccc21`, the TGI in experiment [1] was 4.33 µM; in experiment [2], 34.7 µM; in experiment [3] it was 9.45 µM; in [4], greater than 21.3 µM; in experiment [5], 12.2 µM; in [6] it was 5.26 µM. Also, the TGI in [7] is 13.8 µM; in experiment [8] it was 5.58 µM; in experiment [9], 4.6 µM; in experiment [10] it was 6.48 µM; in experiment [11], 33.9 µM; in experiment [12], 3.82 µM. For the same molecule, the TGI in experiment [13] stood at 7.72 µM; in [14], 28 µM; in experiment [15], 12.8 µM; in [16] it was 3.86 µM; in experiment [17], 5.04 µM; in experiment [18], 4.7 µM.

For `CCOc1ncn(-c2ccc(NC(=S)NC34CC5CC(CC(C5)C3)C4)cc2)n1`, the TGI in experiment [1], in experiment [2], in experiment [3], in experiment [4], in experiment [5] and in experiment [6] was greater than 100 µM each time. The TGI in experiment [7], in experiment [8], in experiment [9], in [10], in [11] and in [12] was greater than 100 µM each time. Further, the TGI in [13] is 64.3 µM; in experiment [14], greater than 100 µM; in [15], 76.2 µM; in experiment [16], greater than 100 µM; in experiment [17] it was greater than 100 µM; in experiment [18], greater than 100 µM.

(Values after PubChem BioAssay (NCI).)
